Tests used:
HusA^Pg = biological target: T1, HusA^Pg (Porphyromonas gingivalis, UniProt Q7MSY3); experiment: UV-visible difference absorbance spectroscopy; assay type: binding; settings: 5 uM protein, 5 uM PPIX, PBS pH 7.4, room temperature; complex seen by spectroscopy only
T1 construct: gene PG_2227; 8xHis-MBP tag cut off with Factor Xa; E. coli host; strain of the plasmid only in supplement (W83 is the BLAST query strain)

HmuY^Bf-2 = biological target: T2, HmuY^Bf-2 (Bacteroides fragilis, UniProt Q5LGH3); experiment: UV-visible difference absorbance spectroscopy; semi-denaturing PAGE with fluorescence detection; assay type: binding; settings: 5 uM protein, 5 uM PPIX, PBS pH 7.4, room temperature
T2 construct: gene BF9343_0985; 8xHis-MBP tag cut off with Factor Xa; E. coli host
T2 sequence (Q5LGH3 entry or part of it): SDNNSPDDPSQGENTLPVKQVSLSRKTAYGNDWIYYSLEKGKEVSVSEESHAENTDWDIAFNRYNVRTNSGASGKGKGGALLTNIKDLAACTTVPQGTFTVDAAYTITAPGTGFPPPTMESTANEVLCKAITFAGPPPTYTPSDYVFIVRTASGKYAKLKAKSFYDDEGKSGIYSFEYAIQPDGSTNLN

T1 sequence (Q7MSY3 entry or part of it): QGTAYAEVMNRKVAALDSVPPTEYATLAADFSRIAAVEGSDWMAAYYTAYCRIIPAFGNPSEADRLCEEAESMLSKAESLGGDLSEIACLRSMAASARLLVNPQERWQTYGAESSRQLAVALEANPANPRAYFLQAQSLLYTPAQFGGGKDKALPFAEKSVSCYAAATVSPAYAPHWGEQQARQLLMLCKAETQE

## C=CC1=C(C)c2cc3[nH]c(cc4nc(cc5[nH]c(cc1n2)c(C)c5CCC(=O)O)C(CCC(=O)O)=C4C)c(C)c3C=C [PPIX]
HusA^Pg
  UV-visible difference absorbance spectroscopy: HmuY^Bf-2, which, similar to HusA^Pg, binds both heme and PPIX
HmuY^Bf-2
  UV-visible difference absorbance spectroscopy; semi-denaturing PAGE with fluores: PPIX binding by HmuY^Bf-2 were detected after electrophoretic separation of proteins and porphyrins

Reference: article PMC12106395, “HmuY proteins of the Porphyromonas genus show diversity in heme-binding properties” (Frontiers in Cellular and Infection Microbiology, 2025)
